Measurements from ChEMBL document CHEMBL3044561, “A rapid access to new coumarinyl chalcone and substituted chromeno[4,3-c]pyrazol-4(1H)-ones and their antibacterial and DPPH radical scavenging activities” (Med Chem Res, 2011).

Assays:
Staphylococcus aureus = assay: Antibacterial activity against Staphylococcus aureus NCTC 7447 at 1 mg/disk after 24 hr by paper disk diffusion method; assay type: functional
[1] = tested on: Radical scavenging activity; assay: Antioxidant activity assessed as DPPH free radical scavenging activity after 30 min; assay type: functional

Molecule | diameter of the inhibition zone (DIZ) (Staphylococcus aureus) [mm] | inhibition zone (IZ) (Staphylococcus aureus) [mm] | IC50 [1] [nM]
Cn1ncc2c(=O)oc3ccccc3c21 | 17 |  | 
GENTAMICIN |  | 15 | 
O=C(/C=C/c1ccc([N+](=O)[O-])cc1)c1c(O)c2ccccc2oc1=O | 16 |  | 3210
COc1ccc(/C=C/C(=O)c2c(O)c3ccccc3oc2=O)cc1 | 14 |  | 2810
O=C(/C=C/c1ccccc1)c1c(O)c2ccccc2oc1=O | 10 |  | 2150
COc1cc(/C=C/C(=O)c2c(O)c3ccccc3oc2=O)cc(OC)c1OC | 11 |  | 2290
O=c1oc2ccccc2c2[nH]ncc12 | 14 |  | 
CN(C)c1ccc(/C=C/C(=O)c2c(O)c3ccccc3oc2=O)cc1 | 11 |  | 2390
O=C(/C=C/c1ccc(Br)cc1)c1c(O)c2ccccc2oc1=O | 9 |  | 2250
O=c1oc2ccccc2c2c1cnn2-c1ccccc1 | 19 |  | 
O=C(/C=C/c1ccc(F)cc1)c1c(O)c2ccccc2oc1=O | 13 |  | 2230
Cc1ccc(/C=C/C(=O)c2c(O)c3ccccc3oc2=O)cc1 | 13 |  | 2070
O=C(/C=C/c1cccc2ccccc12)c1c(O)c2ccccc2oc1=O | 8 |  | 2390
